From PMC7031696 (Cell chemical biology, 2019)
Entries after “also recorded” stand apart in the source; their conditions may differ. Read-outs that look alike come from different tables or passages of the source.

Legend:
[1] = system: 3D7-MR4 trophozoite parasite-infected RBCs; assay: Metabolomic profiling (hydrophilic metabolite changes, UHPLC-MS); type: cell-based, Plasmodium falciparum
[2] = system: asynchronous 3D7-A10 parasite cultures; assay: Standard 72-h exposure asexual blood stage susceptibility assay (IC50^72h); type: cell-based, Plasmodium falciparum; settings: Plasmodium falciparum, 3D7, 72 h, read-out: Overall (72hr assay) Mean IC50 (IC50^72h)
[3] = system: Plasmodium falciparum 3D7-A10 parasites; assay: Stage specificity assay (8-h exposure of synchronized stages, IC50^8h); type: cell-based; settings: for IC50: Plasmodium falciparum

Which results are given for CCCCN(CCCC)CC(O)c1cc(Cl)cc2c1-c1ccc(Cl)cc1/C2=C/c1ccc(Cl)cc1 (centres unmarked) [Lumefantrine, reference compound]?
peptide levels (hemoglobin catabolism signature) ([1]; 10 × IC50^72h, 2.5 hr, trophozoites): minor peptide increases; Log2(fold changes) 3-phosphoglycerate ([1]; metabolite 3-phosphoglycerate, log2 fold change): 0.2561; Log2(fold changes) 4-Pyridoxic acid ([1]; metabolite 4-Pyridoxic acid, log2 fold change): 0.0070; Log2(fold changes) 4-aminobutyrate ([1]; metabolite 4-aminobutyrate, log2 fold change): -0.1610; Log2(fold changes) 4-phosphopantetheine ([1]; metabolite 4-phosphopantetheine, log2 fold change): 0.0000; Log2(fold changes) 4-phosphopantothenate ([1]; metabolite 4-phosphopantothenate, log2 fold change): 0.0324; Log2(fold changes) 5-aminopentanoic acid ([1]; metabolite 5-aminopentanoic acid, log2 fold change): 0.0000; Log2(fold changes) 5-methyl-THF ([1]; metabolite 5-methyl-THF, log2 fold change): 0.0000; Log2(fold changes) 5-phosphoribosyl-1-pyrophosphate ([1]; metabolite 5-phosphoribosyl-1-pyrophosphate, log2 fold change): 0.0000; Log2(fold changes) 6-phospho-D-gluconate ([1]; metabolite 6-phospho-D-gluconate, log2 fold change): -0.0221; Log2(fold change) HVDD ([1]; metabolite HVDD): 0.0000; Log2(fold change) Hydroxyisocaproic acid ([1]; metabolite Hydroxyisocaproic acid): 0.0000; Log2(fold change) IDP ([1]; metabolite IDP): 0.0726; Log2(fold change) IMP ([1]; metabolite IMP): 0.0056; Log2(fold change) Inositol ([1]; metabolite Inositol): 0.0000; Log2(fold change) Isopentyl-PP ([1]; metabolite Isopentyl-PP): 0.0000; Log2(fold change) L-arginino-succinate ([1]; metabolite L-arginino-succinate): -0.9519; Log2(fold change) LD ([1]; metabolite LD): -0.1057; Log2(fold change) Myristoyl/tetradecanoyl-CoA ([1]; metabolite Myristoyl/tetradecanoyl-CoA): 0.0333; Log2(fold change) N-Acetyl-L-alanine ([1]; metabolite N-Acetyl-L-alanine): -0.2647; Log2(fold change) N-acetyl-L-ornithine ([1]; metabolite N-acetyl-L-ornithine): -0.6357; Log2(fold change) N-acetyl-glucosamine-1/6-phosphate ([1]; metabolite N-acetyl-glucosamine-1/6-phosphate): 0.0000; Log2(fold change) N-acetyl-glutamate ([1]; metabolite N-acetyl-glutamate): -0.0437; Log2(fold change) N-acetyl-glutamine ([1]; metabolite N-acetyl-glutamine): 0.0000; Log2(fold change) N-carbamoyl-L-aspartate ([1]; metabolite N-carbamoyl-L-aspartate): -0.1460; Log2(fold change) NAD+ ([1]; metabolite NAD+): -0.0402; Log2(fold change) NADH ([1]; metabolite NADH): 0.0000; Log2(fold change) NADP+ ([1]; metabolite NADP+): -0.0151; Log2(fold change) NADPH ([1]; metabolite NADPH): -0.2368; Log2(fold change) O-acetyl-L-serine ([1]; metabolite O-acetyl-L-serine): 0.0000; Log2(fold change) Octoluse 8/1P ([1]; metabolite Octoluse 8/1P): -0.0627; Log2(fold change) Octoluse Bisphosphate ([1]; metabolite Octoluse Bisphosphate): -0.2224; Log2(fold change) PD ([1]; metabolite PD): -0.6715; Log2(fold change) PE ([1]; metabolite PE): -0.8261; Log2(fold change) PEE ([1]; metabolite PEE): -0.8026; Log2(fold change) PEEK ([1]; metabolite PEEK): -1.0553; Log2(fold change) PVNF ([1]; metabolite PVNF): -1.0323; Log2(fold change) Pyroglutamic acid ([1]; metabolite Pyroglutamic acid): -0.2992; Log2(fold change) Pyrophosphate ([1]; metabolite Pyrophosphate): 0.0000; Log2(fold change) Ribose-5-phosphate ([1]; metabolite Ribose-5-phosphate): -0.3541; Log2(fold change) S-adenosyl-L-homocysteine ([1]; metabolite S-adenosyl-L-homocysteine): -0.4489; Log2(fold change) S-adenosyl-L-methioninamine ([1]; metabolite S-adenosyl-L-methioninamine): 0.0000; Log2(fold change) S-adenosyl-L-methionine ([1]; metabolite S-adenosyl-L-methionine): 0.0000; Log2(fold change) S-methyl-5'-thioadenosine ([1]; metabolite S-methyl-5'-thioadenosine): 0.0780; Log2(fold change) SD ([1]; metabolite SD): -0.5378; Log2(fold change) SDL ([1]; metabolite SDL): -0.2618; Log2(fold change) SID ([1]; metabolite SID): -0.7176; Log2(fold change) Sedoheptulose bisphosphate ([1]; metabolite Sedoheptulose bisphosphate): -0.0691; Log2(fold change) Thiamine pyrophosphate ([1]; metabolite Thiamine pyrophosphate): 0.0528; Log2(fold changes) UDP-D-glucose ([1]; metabolite UDP-D-glucose, log2 fold change): 0.0221; Log2(fold changes) UDP-D-glucuronate ([1]; metabolite UDP-D-glucuronate, log2 fold change): 0.0757; Log2(fold changes) UDP-N-acetyl-glucosamine ([1]; metabolite UDP-N-acetyl-glucosamine, log2 fold change): -0.0029; Log2(fold changes) UDP ([1]; metabolite UDP, log2 fold change): 0.0413; Log2(fold changes) UMP ([1]; metabolite UMP, log2 fold change): 0.0984; Log2(fold changes) UTP ([1]; metabolite UTP, log2 fold change): 0.0275; Log2(fold change) hydroxyphenylpyruvate ([1]; metabolite hydroxyphenylpyruvate): 0.0000; Log2(fold change) hydroxyproline/Aminolevulinate ([1]; metabolite hydroxyproline/Aminolevulinate): -0.1667; Log2(fold change) hypoxanthine ([1]; metabolite hypoxanthine): 0.0000; Log2(fold change) indole ([1]; metabolite indole): 0.0000; Log2(fold change) inosine ([1]; metabolite inosine): -0.7307; Log2(fold change) isoleucine ([1]; metabolite isoleucine): -0.3373; Log2(fold change) lactate ([1]; metabolite lactate): -0.7427; Log2(fold change) leucine ([1]; metabolite leucine): -0.5467; Log2(fold change) lysine ([1]; metabolite lysine): -0.9287; Log2(fold change) malate ([1]; metabolite malate): -0.2859; Log2(fold change) maleic acid ([1]; metabolite maleic acid): -0.2558; Log2(fold change) methionine ([1]; metabolite methionine): -0.5836; Log2(fold change) myo-inositol ([1]; metabolite myo-inositol): -1.2017; Log2(fold change) nicotinamide mononucleotide ([1]; metabolite nicotinamide mononucleotide): -0.1717; Log2(fold change) nicotinate ([1]; metabolite nicotinate): -0.0538; Log2(fold change) ornithine ([1]; metabolite ornithine): 0.0000; Log2(fold change) orotate ([1]; metabolite orotate): -0.5668; Log2(fold change) orotidine-5'-phosphate ([1]; metabolite orotidine-5'-phosphate): -1.0458; Log2(fold change) oxaloacetate ([1]; metabolite oxaloacetate): 0.0000; Log2(fold change) p-aminobenzoate ([1]; metabolite p-aminobenzoate): 0.0000; Log2(fold change) p-hydroxybenzoate ([1]; metabolite p-hydroxybenzoate): 0.0000; Log2(fold change) pantothenate ([1]; metabolite pantothenate): 0.0000; Log2(fold change) phenylalanine ([1]; metabolite phenylalanine): -0.5609; Log2(fold change) phenylpyruvate ([1]; metabolite phenylpyruvate): 0.0000; Log2(fold change) phosphoenolpyruvate ([1]; metabolite phosphoenolpyruvate): 0.3731; Log2(fold change) prephenate ([1]; metabolite prephenate): 0.0000; Log2(fold change) proline ([1]; metabolite proline): -0.4274; Log2(fold change) pyridoxine ([1]; metabolite pyridoxine): -0.6579; Log2(fold change) pyruvate ([1]; metabolite pyruvate): -0.6264; Log2(fold change) riboflavin ([1]; metabolite riboflavin): -0.1882; Log2(fold change) ribose ([1]; metabolite ribose): -0.6495; Log2(fold change) ribose-phosphate ([1]; metabolite ribose-phosphate): -0.3829; Log2(fold change) ribulose-5-phosphate ([1]; metabolite ribulose-5-phosphate): -0.2140; Log2(fold change) serine ([1]; metabolite serine): -0.3504; Log2(fold change) sn-glycerol-3-phosphate ([1]; metabolite sn-glycerol-3-phosphate): 0.0117; Log2(fold change) succinate/Methylmalonic acid ([1]; metabolite succinate/Methylmalonic acid): 0.0257; Log2(fold change) succinyl-CoA/methylmalonyl-CoA ([1]; metabolite succinyl-CoA/methylmalonyl-CoA): 0.0000; Log2(fold change) taurine ([1]; metabolite taurine): -0.1171; Log2(fold change) thiamine ([1]; metabolite thiamine): -0.2236; Log2(fold change) threonine/homoserine ([1]; metabolite threonine/homoserine): -0.3606; Log2(fold change) thymidine ([1]; metabolite thymidine): 0.0000; Log2(fold changes) thymine ([1]; metabolite thymine, log2 fold change): 0.0000; Log2(fold changes) trehalose-6-Phosphate ([1]; metabolite trehalose-6-Phosphate, log2 fold change): 0.0000; Log2(fold changes) tryptophan ([1]; metabolite tryptophan, log2 fold change): -0.3412; Log2(fold changes) tyrosine ([1]; metabolite tyrosine, log2 fold change): -0.2808; Log2(fold changes) uridine ([1]; metabolite uridine, log2 fold change): 0.0000; IC50 [2]: 1.3 nM; Ratio lowest IC50 8hr/IC50 72hr ([3]; 3D7-A10): 11.6; IC50 ([3]; 3D7, read-out: Early rings Mean IC50 (IC50^8h), 8-h exposure 0–8 hr, 3D7-A10, survival at 60 h): 15.4 nM; IC50 ([3]; 3D7, read-out: Early trophozoites Mean IC50 (IC50^8h), 8-h exposure 16–24 hr, 3D7-A10, survival at 60 h): 19.5 nM; IC50 ([3]; 3D7, read-out: IC50^8h values, text summary of Table S1): < 300 nM; IC50 ([3]; 3D7, read-out: Late rings Mean IC50 (IC50^8h), 8-h exposure 8–16 hr, 3D7-A10, survival at 60 h): 15.8 nM; IC50 ([3]; 3D7, read-out: Late trophozoites Mean IC50 (IC50^8h), 8-h exposure 24–32 hr, 3D7-A10, survival at 60 h): 22.3 nM; IC50 ([3]; 3D7, read-out: Schizonts Mean IC50 (IC50^8h), 8-h exposure 32–40 hr, 3D7-A10, survival at 60 h): 81 nM; Stage of peak activity (Figure 6) ([3]; period when the parasite was most susceptible (lowest IC50^8h)): ring and trophozoite stages; also recorded: both rings and trophozoites
